In US9695155B2, “Herbicidal substituted pyrimidinyloxy benzene compounds” (E. I. DU PONT DE NEMOURS AND COMPANY, priority 2013, dated 2017):

Tests used:
giant foxtail [1] = assay: Test A postemergence; format: in vivo, Setaria faberii; conditions: 0 to 100 scale where 0 is no effect and 100 is complete control
Procedure, shortened: (§1)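 Visual 0–100 rating (100 = complete control) taken about 10 d post-treatment relative to untreated checks. Preemergence: directed soil spray on sown loam/sand pots. Postemergence: seedlings 2–10 cm, 1–2 leaf. Non-phytotoxic solvent formulation with surfactant.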

pigweed [2] = assay: Test A preemergence; format: in vivo, Amaranthus retroflexus; conditions: for Plant response rating, Pigweed: 125 g ai/ha; for Pigweed plant response rating: 500 g ai/ha
Procedure, shortened: as §1

rice = assay: Test B flooded paddy test; format: in vivo, Oryza sativa; conditions: Flood, 250 g ai/ha; 0 to 100 scale where 0 is no effect and 100 is complete control
Procedure, shortened: (§2)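 Visual ratings on a 0 to 100 scale, where 100 means complete control, compared treated plants with controls after 13 to 15 days in a greenhouse. Treatment went into paddy water 3 cm deep over the soil, applied to plants at the 2-leaf stage.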

sedge, umbrella = assay: Test B flooded paddy test; format: in vivo, Cyperus difformis; conditions: Flood, 250 g ai/ha; 0 to 100 scale where 0 is no effect and 100 is complete control
Procedure, shortened: as §2

large (Lg) crabgrass [3] = assay: Test A postemergence; format: in vivo, Digitaria sanguinalis; conditions: 0 to 100 scale where 0 is no effect and 100 is complete control
Procedure, shortened: as §1

wheat [4] = assay: Test A preemergence; format: in vivo, Triticum aestivum; conditions: 0 to 100 scale where 0 is no effect and 100 is complete control; for Plant response rating, Wheat: 125 g ai/ha
Procedure, shortened: as §1

morningglory [5] = assay: Test A preemergence; format: in vivo, Ipomoea spp.; conditions: for Plant response rating, Morningglory: 125 g ai/ha; for Morningglory plant response rating: 500 g ai/ha
Procedure, shortened: as §1

large (Lg) crabgrass [6] = assay: Test A preemergence; format: in vivo, Digitaria sanguinalis; conditions: for Plant response rating, Crabgrass, Large: 125 g ai/ha; for Crabgrass, Large plant response rating: 500 g ai/ha
Procedure, shortened: as §1

velvetleaf [7] = assay: Test A preemergence; format: in vivo, Abutilon theophrasti; conditions: 0 to 100 scale where 0 is no effect and 100 is complete control; for Plant response rating, Velvetleaf: 125 g ai/ha
Procedure, shortened: as §1

barnyardgrass [8] = assay: Test B flooded paddy test; format: in vivo, Echinochloa crus-galli; conditions: Flood, 250 g ai/ha; 0 to 100 scale where 0 is no effect and 100 is complete control
Procedure, shortened: as §2

corn [9] = assay: Test A preemergence; format: in vivo, Zea mays; conditions: for Plant response rating, Corn: 125 g ai/ha; for Corn plant response rating: 500 g ai/ha
Procedure, shortened: as §1

barnyardgrass [10] = assay: Test A postemergence; format: in vivo, Echinochloa crus-galli; conditions: 0 to 100 scale where 0 is no effect and 100 is complete control
Procedure, shortened: as §1

Heteranthera limosa = assay: Test B flooded paddy test; format: in vivo; conditions: Flood, 250 g ai/ha; 0 to 100 scale where 0 is no effect and 100 is complete control
Procedure, shortened: as §2

pigweed [11] = assay: Test A postemergence; format: in vivo, Amaranthus retroflexus; conditions: 0 to 100 scale where 0 is no effect and 100 is complete control
Procedure, shortened: as §1

barnyardgrass [12] = assay: Test A preemergence; format: in vivo, Echinochloa crus-galli; conditions: for Plant response rating, Barnyardgrass: 125 g ai/ha; for Barnyardgrass plant response rating: 500 g ai/ha
Procedure, shortened: as §1

velvetleaf [13] = assay: Test A postemergence; format: in vivo, Abutilon theophrasti; conditions: 0 to 100 scale where 0 is no effect and 100 is complete control
Procedure, shortened: as §1

morningglory [14] = assay: Test A postemergence; format: in vivo, Ipomoea spp.; conditions: 0 to 100 scale where 0 is no effect and 100 is complete control
Procedure, shortened: as §1

giant foxtail [15] = assay: Test A preemergence; format: in vivo, Setaria faberii; conditions: for Plant response rating, Foxtail, Giant: 125 g ai/ha; for Foxtail, Giant plant response rating: 500 g ai/ha
Procedure, shortened: as §1

wheat [16] = assay: Test A postemergence; format: in vivo, Triticum aestivum; conditions: 0 to 100 scale where 0 is no effect and 100 is complete control
Procedure, shortened: as §1

corn [17] = assay: Test A postemergence; format: in vivo, Zea mays; conditions: 0 to 100 scale where 0 is no effect and 100 is complete control
Procedure, shortened: as §1

[18] = 0 to 100 scale where 0 is no effect and 100 is complete control
[19] = 0 to 100 scale, 0 no effect, 100 complete control, approx. 10 days

CC(=O)c1cccc(Oc2ncc(Cl)cn2)c1-n1cc(Br)cn1 [Compound 96]
Plant response rating, Foxtail, Giant (giant foxtail [1]; 125 g ai/ha): 0 | Plant response rating, Foxtail, Giant (giant foxtail [1]; 500 g ai/ha): 20 | Plant response rating, Pigweed (pigweed [2]; [18]): 50 | Pigweed plant response rating (pigweed [2]; [19]): 100 | Plant response rating, Rice (rice): 0 | Plant response rating, Sedge, Umbrella (sedge, umbrella): 0 | Plant response rating, Crabgrass, Large (large (Lg) crabgrass [3]; 125 g ai/ha): 10 | Plant response rating, Crabgrass, Large (large (Lg) crabgrass [3]; 500 g ai/ha): 30 | Plant response rating, Wheat (wheat [4]): 0 | Plant response rating, Morningglory (morningglory [5]; [18]): 0 | Morningglory plant response rating (morningglory [5]; [19]): 0 | Plant response rating, Crabgrass, Large (large (Lg) crabgrass [6]; [18]): 30 | Crabgrass, Large plant response rating (large (Lg) crabgrass [6]; [19]): 90 | Plant response rating, Velvetleaf (velvetleaf [7]): 0 | Plant response rating, Barnyardgrass (barnyardgrass [8]): 0 | Plant response rating, Corn (corn [9]; [18]): 0 | Corn plant response rating (corn [9]; [19]): 0 | Plant response rating, Barnyardgrass (barnyardgrass [10]; 125 g ai/ha): 10 | Plant response rating, Barnyardgrass (barnyardgrass [10]; 500 g ai/ha): 30 | Plant response rating, Ducksalad (Heteranthera limosa): 0 | Plant response rating, Pigweed (pigweed [11]; 125 g ai/ha): 10 | Plant response rating, Pigweed (pigweed [11]; 500 g ai/ha): 40 | Plant response rating, Barnyardgrass (barnyardgrass [12]; [18]): 0 | Barnyardgrass plant response rating (barnyardgrass [12]; [19]): 30 | Plant response rating, Velvetleaf (velvetleaf [13]; 125 g ai/ha): 0 | Plant response rating, Velvetleaf (velvetleaf [13]; 500 g ai/ha): 10 | Plant response rating, Morningglory (morningglory [14]; 125 g ai/ha): 0 | Plant response rating, Morningglory (morningglory [14]; 500 g ai/ha): 10 | Plant response rating, Foxtail, Giant (giant foxtail [15]; [18]): 10 | Foxtail, Giant plant response rating (giant foxtail [15]; [19]): 60 | Plant response rating, Wheat (wheat [16]; 125 g ai/ha): 0 | Plant response rating, Wheat (wheat [16]; 500 g ai/ha): 0 | Plant response rating, Corn (corn [17]; 125 g ai/ha): 0 | Plant response rating, Corn (corn [17]; 500 g ai/ha): 10

O=Cc1cccc(Oc2ncc(Br)cn2)c1-n1cc(C(F)(F)F)cn1 [Compound 161]
Foxtail, Giant plant response rating (giant foxtail [1]; 125 g ai/ha): 0 | Plant response rating, Foxtail, Giant (giant foxtail [1]; 500 g ai/ha): 0 | Plant response rating, Pigweed (pigweed [2]; [18]): 90 | Pigweed plant response rating (pigweed [2]; [18]): 100 | Plant response rating, Rice (rice): 0 | Plant response rating, Sedge, Umbrella (sedge, umbrella): 0 | Crabgrass, Large plant response rating (large (Lg) crabgrass [3]; 125 g ai/ha): 0 | Plant response rating, Crabgrass, Large (large (Lg) crabgrass [3]; 500 g ai/ha): 0 | Plant response rating, Wheat (wheat [4]): 0 | Wheat plant response rating (wheat [4]; 500 g ai/ha): 0 | Plant response rating, Morningglory (morningglory [5]; [18]): 0 | Morningglory plant response rating (morningglory [5]; [18]): 0 | Plant response rating, Crabgrass, Large (large (Lg) crabgrass [6]; [18]): 0 | Crabgrass, Large plant response rating (large (Lg) crabgrass [6]; [18]): 0 | Plant response rating, Velvetleaf (velvetleaf [7]): 10 | Velvetleaf plant response rating (velvetleaf [7]; 500 g ai/ha): 20 | Plant response rating, Barnyardgrass (barnyardgrass [8]): 0 | Plant response rating, Corn (corn [9]; [18]): 0 | Corn plant response rating (corn [9]; [18]): 0 | Barnyardgrass plant response rating (barnyardgrass [10]; 125 g ai/ha): 0 | Plant response rating, Barnyardgrass (barnyardgrass [10]; 500 g ai/ha): 0 | Plant response rating, Ducksalad (Heteranthera limosa): 0 | Pigweed plant response rating (pigweed [11]; 125 g ai/ha): 50 | Plant response rating, Pigweed (pigweed [11]; 500 g ai/ha): 80 | Plant response rating, Barnyardgrass (barnyardgrass [12]; [18]): 0 | Barnyardgrass plant response rating (barnyardgrass [12]; [18]): 10 | Velvetleaf plant response rating (velvetleaf [13]; 125 g ai/ha): 10 | Plant response rating, Velvetleaf (velvetleaf [13]; 500 g ai/ha): 20 | Morningglory plant response rating (morningglory [14]; 125 g ai/ha): 0 | Plant response rating, Morningglory (morningglory [14]; 500 g ai/ha): 0 | Plant response rating, Foxtail, Giant (giant foxtail [15]; [18]): 0 | Foxtail, Giant plant response rating (giant foxtail [15]; [18]): 0 | Wheat plant response rating (wheat [16]; 125 g ai/ha): 0 | Plant response rating, Wheat (wheat [16]; 500 g ai/ha): 0 | Corn plant response rating (corn [17]; 125 g ai/ha): 0 | Plant response rating, Corn (corn [17]; 500 g ai/ha): 0
